Measured values as given in the supplement of paper PMC10307832.

Tests used:
Experiment in all cases: relative viability (nuclei count vs DMSO), 5 days (fraction); higher = more cells survive
201T = system: 201T
Procedure, shortened: (§1)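 A single step with final 0.05% Triton X-100, 1% formaldehyde and 1 ug/ml Hoechst fixed the cells and stained nuclei 5 days after treatment. Lung cancer cell lines in 1536-well plates had been treated by pin tool the day after seeding with one drug alone or a fixed anchor-drug dose plus five library-drug doses (not always all listed) in √10 steps, and nuclei were counted on 4× images. Relative viability is the ratio of nuclei in treated wells to nuclei in vehicle wells, taken as the median of duplicate plates.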

COR-L 105 = system: COR-L 105
Procedure, shortened: as §1

COR-L23 = system: COR-L23
Procedure, shortened: as §1

EKVX = system: EKVX
Procedure, shortened: as §1

EPLC-272H = system: EPLC-272H
Procedure, shortened: as §1

H3255 = system: H3255
Procedure, shortened: as §1

HCC-15 = system: HCC-15
Procedure, shortened: as §1

HCC-827 = system: HCC-827
Procedure, shortened: as §1

LCLC-97TM1 = system: LCLC-97TM1
Procedure, shortened: as §1

NCI-H1395 = system: NCI-H1395
Procedure, shortened: as §1

NCI-H1648 = system: NCI-H1648
Procedure, shortened: as §1

NCI-H1650 = system: NCI-H1650
Procedure, shortened: as §1

NCI-H1651 = system: NCI-H1651
Procedure, shortened: as §1

NCI-H1792 = system: NCI-H1792
Procedure, shortened: as §1

NCI-H1915 = system: NCI-H1915
Procedure, shortened: as §1

NCI-H2023 = system: NCI-H2023
Procedure, shortened: as §1

NCI-H322M = system: NCI-H322M
Procedure, shortened: as §1

NCI-H358 = system: NCI-H358
Procedure, shortened: as §1

NCI-H460 = system: NCI-H460
Procedure, shortened: as §1

NCI-H520 = system: NCI-H520
Procedure, shortened: as §1

NCI-H596 = system: NCI-H596
Procedure, shortened: as §1

NCI-H647 = system: NCI-H647
Procedure, shortened: as §1

SK-MES-1 = system: SK-MES-1
Procedure, shortened: as §1

SW 900 = system: SW 900
Procedure, shortened: as §1

## C=C1C(=O)O[C@@H](CCCCCCCC)[C@@H]1C(=O)O [C-75] + Nc1ncn([C@H]2C[C@H](O)[C@@H](CO)O2)c(=O)n1 [Decitabine] (partner 2 µM)
201T; first compound 0.08 µM
  relative viability: 0.844
201T; first compound 0.253 µM
  relative viability: 0.938
201T; first compound 0.8 µM
  relative viability: 0.842
201T; first compound 2.53 µM
  relative viability: 0.627
201T; first compound 8 µM
  relative viability: 0.813
COR-L 105; first compound 0.08 µM
  relative viability: 0.7
COR-L 105; first compound 0.253 µM
  relative viability: 0.685
COR-L 105; first compound 0.8 µM
  relative viability: 0.582
COR-L 105; first compound 2.53 µM
  relative viability: 0.477
COR-L 105; first compound 8 µM
  relative viability: 0.606
COR-L23; first compound 0.08 µM
  relative viability: 0.483
COR-L23; first compound 0.253 µM
  relative viability: 0.486
COR-L23; first compound 0.8 µM
  relative viability: 0.415
COR-L23; first compound 2.53 µM
  relative viability: 0.459
COR-L23; first compound 8 µM
  relative viability: 0.396
EKVX; first compound 0.08 µM
  relative viability: 0.399
EKVX; first compound 0.253 µM
  relative viability: 0.397
EKVX; first compound 0.8 µM
  relative viability: 0.336
EKVX; first compound 8 µM
  relative viability: 0.325
EPLC-272H; first compound 0.08 µM
  relative viability: 0.338
EPLC-272H; first compound 0.253 µM
  relative viability: 0.436
EPLC-272H; first compound 0.8 µM
  relative viability: 0.334
EPLC-272H; first compound 2.53 µM
  relative viability: 0.33
EPLC-272H; first compound 8 µM
  relative viability: 0.349
H3255; first compound 0.08 µM
  relative viability: 0.535
H3255; first compound 0.253 µM
  relative viability: 0.599
H3255; first compound 0.8 µM
  relative viability: 0.74
H3255; first compound 2.53 µM
  relative viability: 0.585
H3255; first compound 8 µM
  relative viability: 0.652
HCC-15; first compound 0.08 µM
  relative viability: 0.691
HCC-15; first compound 0.253 µM
  relative viability: 0.636
HCC-15; first compound 0.8 µM
  relative viability: 0.551
HCC-15; first compound 2.53 µM
  relative viability: 0.543
HCC-15; first compound 8 µM
  relative viability: 0.626
HCC-827; first compound 0.253 µM
  relative viability: 0.333
HCC-827; first compound 0.8 µM
  relative viability: 0.277
HCC-827; first compound 8 µM
  relative viability: 0.262
LCLC-97TM1; first compound 0.08 µM
  relative viability: 0.197
LCLC-97TM1; first compound 0.253 µM
  relative viability: 0.254
LCLC-97TM1; first compound 0.8 µM
  relative viability: 0.206
LCLC-97TM1; first compound 2.53 µM
  relative viability: 0.215
LCLC-97TM1; first compound 8 µM
  relative viability: 0.233
NCI-H1395; first compound 0.08 µM
  relative viability: 0.74
NCI-H1395; first compound 0.253 µM
  relative viability: 0.674
NCI-H1395; first compound 2.53 µM
  relative viability: 0.667
NCI-H1395; first compound 8 µM
  relative viability: 0.69
NCI-H1648; first compound 0.08 µM
  relative viability: 0.487
NCI-H1648; first compound 0.253 µM
  relative viability: 0.671
NCI-H1648; first compound 0.8 µM
  relative viability: 0.473
NCI-H1648; first compound 8 µM
  relative viability: 0.492
NCI-H1650; first compound 0.08 µM
  relative viability: 0.362
NCI-H1650; first compound 0.253 µM
  relative viability: 0.384
NCI-H1650; first compound 0.8 µM
  relative viability: 0.453
NCI-H1650; first compound 8 µM
  relative viability: 0.387
NCI-H1651; first compound 0.08 µM
  relative viability: 0.565
NCI-H1651; first compound 0.253 µM
  relative viability: 0.685
NCI-H1651; first compound 0.8 µM
  relative viability: 0.559
NCI-H1651; first compound 2.53 µM
  relative viability: 0.381
NCI-H1651; first compound 8 µM
  relative viability: 0.599
NCI-H1792; first compound 0.08 µM
  relative viability: 0.516
NCI-H1792; first compound 0.253 µM
  relative viability: 0.554
NCI-H1792; first compound 0.8 µM
  relative viability: 0.509
NCI-H1792; first compound 2.53 µM
  relative viability: 0.494
NCI-H1792; first compound 8 µM
  relative viability: 0.475
NCI-H1915; first compound 0.08 µM
  relative viability: 0.254
NCI-H1915; first compound 0.253 µM
  relative viability: 0.24
NCI-H1915; first compound 0.8 µM
  relative viability: 0.296
NCI-H1915; first compound 2.53 µM
  relative viability: 0.24
NCI-H1915; first compound 8 µM
  relative viability: 0.225
NCI-H2023; first compound 0.08 µM
  relative viability: 0.242
NCI-H2023; first compound 0.253 µM
  relative viability: 0.22
NCI-H2023; first compound 0.8 µM
  relative viability: 0.22
NCI-H2023; first compound 8 µM
  relative viability: 0.188
NCI-H322M; first compound 0.08 µM
  relative viability: 0.693
NCI-H322M; first compound 0.253 µM
  relative viability: 0.782
NCI-H322M; first compound 0.8 µM
  relative viability: 0.604
NCI-H322M; first compound 8 µM
  relative viability: 0.66
NCI-H358; first compound 0.08 µM
  relative viability: 0.212
NCI-H358; first compound 0.253 µM
  relative viability: 0.211
NCI-H358; first compound 0.8 µM
  relative viability: 0.203
NCI-H358; first compound 8 µM
  relative viability: 0.18
NCI-H460; first compound 0.08 µM
  relative viability: 0.469
NCI-H460; first compound 0.253 µM
  relative viability: 0.454
NCI-H460; first compound 0.8 µM
  relative viability: 0.46
NCI-H460; first compound 2.53 µM
  relative viability: 0.198
NCI-H460; first compound 8 µM
  relative viability: 0.492
NCI-H520; first compound 0.08 µM
  relative viability: 0.488
NCI-H520; first compound 0.253 µM
  relative viability: 0.522
NCI-H520; first compound 0.8 µM
  relative viability: 0.498
NCI-H520; first compound 2.53 µM
  relative viability: 0.456
NCI-H520; first compound 8 µM
  relative viability: 0.356
NCI-H596; first compound 0.08 µM
  relative viability: 0.943
NCI-H596; first compound 0.253 µM
  relative viability: 1.16
NCI-H596; first compound 0.8 µM
  relative viability: 0.953
NCI-H596; first compound 2.53 µM
  relative viability: 1.07
NCI-H596; first compound 8 µM
  relative viability: 0.96
NCI-H647; first compound 0.08 µM
  relative viability: 0.332
NCI-H647; first compound 0.253 µM
  relative viability: 0.422
NCI-H647; first compound 0.8 µM
  relative viability: 0.365
NCI-H647; first compound 2.53 µM
  relative viability: 0.306
NCI-H647; first compound 8 µM
  relative viability: 0.234
SK-MES-1; first compound 0.08 µM
  relative viability: 0.439
SK-MES-1; first compound 0.253 µM
  relative viability: 0.367
SK-MES-1; first compound 0.8 µM
  relative viability: 0.368
SK-MES-1; first compound 2.53 µM
  relative viability: 0.412
SK-MES-1; first compound 8 µM
  relative viability: 0.311
SW 900; first compound 0.08 µM
  relative viability: 0.413
SW 900; first compound 0.253 µM
  relative viability: 0.489
SW 900; first compound 0.8 µM
  relative viability: 0.46
SW 900; first compound 2.53 µM
  relative viability: 0.401
SW 900; first compound 8 µM
  relative viability: 0.403
